Assay results: patent publication US11364299B2, “Non-addictive analgesic sustained-release drug delivery system and preparation method thereof” (LIPONT PHARMACEUTICALS INC., priority 2013, dated 2022)
Where a name gives a salt, the structure may show the parent alone. Read-outs that look alike come from different tables or passages of the source.

Experiments:
[1] = Formulation experiment for sustained-release formulation delivery system; type: physicochemical; conditions: for Solubility: in ethanol, benzyl alcohol, benzyl benzoate, and ethyl lactate
Source text: Detailed experimental procedures were similar to those in Experimental Example 2. As shown in the experimental results, part of the drug delivery system combinations that may be used in the formula of the sustained-release formulation delivery system is as follows: […]

[2] = Solubility tests of ropivacaine free base and corresponding salts; type: physicochemical
Source text: If a drug dissolved completely, addition of this drug was continued until saturation.

[3] = Structural stability of ropivacaine sustained-release formulations (content determination); type: physicochemical; conditions: content determination after 30 days
[4] = In vitro dissolution stability of the drug formulations; type: physicochemical; conditions: compared with ropivacaine free base
[5] = cited from earlier work
patients = conditions: cited from earlier work
plasma proteins = conditions: concentration-dependent; cited from earlier work
[6] = Compound compositions: dezocine and parecoxib in the drug delivery systems; type: physicochemical; conditions: prescribed compositions of Table IV; 25° C. and 4° C., about 24 h
[7] = Verification of the solubility of various local anesthetics in the sustained-release drug delivery system; type: physicochemical; conditions: 4° C., 24 hours, 15-20 mg/ml
Experimental: The 12 local anesthetics were each added into the selected drug delivery systems, and the dissolution process of the drugs was observed (norm: 15-20 mg/ml, observed at 25° C. for 24 hours with recordation; or observed at 4° C. for 24 hours with recordation).

[8] = in glyceryl monoacetate, 25° C.
[9] = in tetrahydrofurfuryl polyethylene glycol ether, 25° C.

For `CCCN1CCCC[C@H]1C(=O)Nc1c(C)cccc1C` [Ropivacaine free base], the “solubility in mixed solvent” value [1] was “increased solubility”, the Solubility ([2]; in anhydrous ethanol, 25° C.) was 155000 µg/mL and the Solubility ([2]; in anhydrous ethanol, 25° C., listed as ropivacaine free base) was “exceeding 150 mg/ml”. For the same compound, the Solubility ([2]; in benzyl alcohol, 25° C.) was 225000 µg/mL, the Solubility ([2]; in benzyl alcohol, 25° C., listed as ropivacaine free base) was “exceeding 150 mg/ml” and the Solubility ([2]; in benzyl benzoate, 25° C.) was 70000 µg/mL. For the same compound, the Solubility ([2]; in castor oil, 25° C.) was 17000 µg/mL, the Solubility ([2]; in corn oil, 25° C.) was 9400 µg/mL and the Solubility ([2]; in ethyl lactate, 25° C.) was 80000 µg/mL. The Solubility ([2]; in ethyl oleate, 25° C.) was 14900 µg/mL, the Solubility [2, 8] was 18000 µg/mL and the Solubility ([2]; in olive oil, 25° C.) was 9800 µg/mL. It also gave a Solubility ([2]; in sesame oil, 25° C.) of 11700 µg/mL, a Solubility ([2]; in soybean oil, 25° C.) of 9600 µg/mL and a Solubility [2, 9] of 39600 µg/mL. For the same compound, the “structural stability in various prescribed compositions” value [3] was “structurally stable and did not degrade”.

For `CCCN1CCCC[C@H]1C(=O)Nc1c(C)cccc1C` [Ropivacaine hydrochloride], the “solubility in mixed solvent” value ([1]; mixture of benzyl benzoate with one of ethanol and benzyl alcohol) was “increased solubility”, the Solubility ([2]; anhydrous ethanol, 25 °C, organic solvent or mixture, thermodynamic from solid, in anhydrous ethanol, read-out: Solubility) was 95000 µg/mL and the Solubility ([2]; benzyl alcohol, 25 °C, organic solvent or mixture, thermodynamic from solid, in benzyl alcohol, read-out: Solubility) was > 100000 µg/mL. It also gave a Solubility ([2]; benzyl benzoate, 25 °C, organic solvent or mixture, thermodynamic from solid, in benzyl benzoate, read-out: Solubility) of 2500 µg/mL, a Solubility ([2]; castor oil, 25 °C, oil or lipid, thermodynamic from solid, in castor oil, read-out: Solubility) of 1700 µg/mL and a Solubility ([2]; corn oil, 25 °C, oil or lipid, thermodynamic from solid, in corn oil, read-out: Solubility) of 2500 µg/mL. It also gave a Solubility ([2]; ethyl lactate, 25 °C, organic solvent or mixture, thermodynamic from solid, in ethyl lactate, read-out: Solubility) of 16500 µg/mL, a Solubility ([2]; ethyl oleate, 25 °C, oil or lipid, thermodynamic from solid, in ethyl oleate, read-out: Solubility) of 2200 µg/mL and a Solubility ([2]; glyceryl monoacetate, 25 °C, organic solvent or mixture, thermodynamic from solid, in glyceryl monoacetate, read-out: Solubility) of 30000 µg/mL. For the same compound, the Solubility ([2]; in benzyl alcohol, 25° C.) was 140000 µg/mL, the Solubility ([2]; olive oil, 25 °C, oil or lipid, thermodynamic from solid, in olive oil, read-out: Solubility) was 1700 µg/mL and the Solubility ([2]; sesame oil, 25 °C, oil or lipid, thermodynamic from solid, in sesame oil, read-out: Solubility) was 2000 µg/mL. The Solubility ([2]; soybean oil, 25 °C, oil or lipid, thermodynamic from solid, in soybean oil, read-out: Solubility) was 2000 µg/mL and the Solubility ([2]; tetrahydrofurfuryl polyethylene glycol ether, 25 °C, organic solvent or mixture, thermodynamic from solid, in tetrahydrofurfuryl polyethylene glycol ether, read-out: Solubility) was 9000 µg/mL.

In the case of `CCCN1CCCC[C@H]1C(=O)Nc1c(C)cccc1C.CS(=O)(=O)O` [Ropivacaine methansulfonate], the “solubility in mixed solvent” value [1] is reported as “increased solubility”, the Solubility ([2]; in anhydrous ethanol, 25° C.) is reported as 320000 µg/mL and the Solubility ([2]; in anhydrous ethanol, 25° C., listed as ropivacaine methansulfonate) is reported as “exceeding 190 mg/ml”. The Solubility ([2]; in benzyl alcohol, 25° C.) was 550000 µg/mL, the Solubility ([2]; in benzyl alcohol, 25° C., listed as ropivacaine methansulfonate) was “exceeding 190 mg/ml” and the Solubility ([2]; in benzyl benzoate, 25° C.) was 2000 µg/mL. For the same compound, the Solubility ([2]; in castor oil, 25° C.) was 2000 µg/mL, the Solubility ([2]; in corn oil, 25° C.) was 1700 µg/mL and the Solubility ([2]; in ethyl lactate, 25° C.) was 198000 µg/mL. For the same compound, the Solubility ([2]; in ethyl lactate, 25° C., listed as ropivacaine methansulfonate) was “exceeding 190 mg/ml”, the Solubility ([2]; in ethyl oleate, 25° C.) was 2000 µg/mL and the Solubility [2, 8] was 50000 µg/mL. For the same compound, the Solubility ([2]; in olive oil, 25° C.) was 2000 µg/mL, the Solubility ([2]; in sesame oil, 25° C.) was 1700 µg/mL and the Solubility ([2]; in soybean oil, 25° C.) was 2500 µg/mL. The Solubility [2, 9] was 13200 µg/mL and the “solubility in various prescribed compositions” value [4] was “slightly poorer than that of ropivacaine free base”.

For `CCCN1CCCC[C@H]1C(=O)Nc1c(C)cccc1C` [Ropivacaine, 1-propy 1-2,6-pipeco loxylidide laevo isomer], the “epidural absorption, half-time of fast phase” value ([5]; epidural) is listed as 14 min, the “epidural absorption, half-time of slow phase” value ([5]; epidural) is listed as 4 h and the steady distribution volume ([5]; in vivo) is listed as 47 L. For the same compound, the “cardiac toxicity and safety” value (patients; 0.1% ropivacaine versus 0.1% bupivacaine, elderly patients) was “relatively lower cardiac toxicity and higher safety in use”, the “analgesic effect of continuous epidural infusion” value (patients; 0.1% ropivacaine, elderly patients after lower limb surgeries (Zonglin YANG et al.)) was “comparable to that with 0.1% bupivacaine” and the “transaxillary brachial plexus block” value (patients; 0.375% ropivacaine versus 0.25% bupivacaine (Qihong ZHAO et al.)) was “faster onset, better efficacy, and fewer adverse effects as compared to 0.25% bupivacaine”. For the same compound, the “local infiltration anesthetic analgesia” value (patients; human, in vivo) was “substantial and lasting analgesic effect with few adverse reactions”, the analgesic duration (patients; human, one clinical injection) was “about 8 hours” and the “gynecologic post-operative patient-controlled analgesia” value (patients; versus bupivacaine (Shunfu CHEN)) was “more suitable for patient-controlled analgesic local anesthesia in gynecologic post-operative patients than bupivacaine”. The “association with plasma proteins” value (plasma proteins) was 94%.

In the case of `C[C@@]12CCCCC[C@@H](Cc3ccc(O)cc31)[C@@H]2N` [dezocine], the Solubility [1] is reported as “good solubility” and the Solubility [6] is reported as > 30000 µg/mL.

For `CCC(=O)NS(=O)(=O)c1ccc(-c2c(-c3ccccc3)noc2C)cc1` [parecoxib], the Solubility [1] was “good solubility” and the Solubility [6] was > 20000 µg/mL.

In the case of `CCN(CC)CCOC(=O)c1ccc(N)cc1` [procaine], the “solubility in the ethyl oleate/soybean oil drug delivery system” value [7] is reported as “slightly precipitated”.

With `CCCCNc1ccc(C(=O)OCCN(C)C)cc1` [tetracaine] the “solubility in the ethyl oleate/soybean oil drug delivery system” value [7] was “slightly precipitated”.
